Measurements as given in patent publication US20260199284A1, “SPECIFIC VASH COMPOUNDS (SVC) INHIBITORS FOR HEART DISEASES” (MT ACT, priority 2023, published 2026).
“Also recorded” adds a separate entry of the source.

Assays:
[1] = target: recombinant human VASH2 (Homo sapiens, UniProt Q86V25); assay: In vitro detyrosination assay with recombinant human VASH2; assay type: biochemical; conditions: increasing concentration
Experimental: FIG. 32: In vitro detyrosination assays using recombinant human VASH1 and VASH2 enzymes in presence of increasing concentration of SVC_01.
Specificity of SVC-01 was assayed using both human VASH1 and VASH2 recombinant enzymes. […] Finally, to ensure that regulation of other genes involved in the detyrosination-tyrosination cycle is not affected, we analysed gene expression of all relevant and associated genes following treatment with SVC-02 in adult human cardiomyocytes. We found no alteration of VASH1, VASH2, MATCAP, TTL or SVBP gene expression between vehicle control and SVC-02 treated cells (FIG. 34).

[2] = target: T1, Carboxypeptidase A (CPA) (Homo sapiens, UniProt P15085); assay: Carboxypeptidase A in vitro assay (western blot); assay type: biochemical; conditions: selectivity control
T1 sequence (P15085 111-419): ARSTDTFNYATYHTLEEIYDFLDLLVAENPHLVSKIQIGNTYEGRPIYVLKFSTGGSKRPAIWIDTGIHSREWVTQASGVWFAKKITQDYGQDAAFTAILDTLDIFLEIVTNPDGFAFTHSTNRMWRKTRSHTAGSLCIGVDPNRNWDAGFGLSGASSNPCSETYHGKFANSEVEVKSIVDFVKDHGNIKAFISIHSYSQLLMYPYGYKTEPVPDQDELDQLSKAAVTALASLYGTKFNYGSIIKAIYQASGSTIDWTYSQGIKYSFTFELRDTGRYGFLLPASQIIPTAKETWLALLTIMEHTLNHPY
Source text: FIG. 6: In vitro detyrosination assays using recombinant human enzymes in absence or presence of SVC_01 or BzISA (specific carboxypeptidase A inhibitor). […] Reactions were stopped using SDS-page laemli buffer and loaded for western blotting using specific antibodies.
Below, the criteria for selection are detailed: • Protease with documented carboxypeptidase activity towards alpha tubulin. Carboxypeptidase A hydrolyzes peptide bonds of C-terminal residues with aromatic or aliphatic side-chains (FIG. 6). • Cysteine protease with preference for non-aromatic residues at P1′. The optimum recognition site for Human rhinovirus (HRV) type 14 3C protease is LEVLFQ/GP, with a glycine at the P1′ position (FIG. 7). • Cysteine protease with preference for aromatic residues at P1′ site. Alike VASH, cathepsin B prefers an aromatic residue at the P1′ position. This is considered to be our best control for specificity (FIG. 8)

[3] = test system: mitochondrial activity; assay: Seahorse Cell Mito Stress Test; assay type: cell-based; conditions: 20 μM
Experimental: FIG. 10: Mitochondrial activity assays using the Agilent Seahorse Cell Mito Stress Test kit in absence or presence of SVC_01 [20 μM]. This assay is the widely recognized, well-accepted standard assay for assessing energetic mitochondrial function. Multiple parameters are obtained in this one assay including, basal respiration, ATP-linked respiration, maximal and reserve capacities, and non-mitochondrial respiration. The assay provides insights into the mechanism of mitochondrial dysfunction and allow users to investigate functional differences among cell types, drug candidates, and genetic or biochemical interventions.
Next, we performed safety pharmacology experiments and head-to-head compared the cellular toxicity of SVCs on human cells. For our comparison we used microtubule binding agents including Parthenolide that previously was coined as an inhibitor of detyrosination (Fonrose et al., 2007). This compound was latter shown to disrupt microtubules by non-specific binding to tubulin in the molecular structure (Hotta T. et al., 2021). […] Mitochondrial health was assayed using the Seahorse equipment XF. […] No mitochondrial defects were measured at 20 micromolar concentration of our VASH inhibitor (FIG. 10). […]

[4] = test system: ZSF-1 Obese cardiomyocyte; assay: Immunofluorescence of detyrosinated and tyrosinated tubulin in ZSF1 cardiomyocytes; assay type: cell-based, rat; conditions: 2 hr 37 C incubation
Experimental: Cells were fixed in 4% PFA (Electron Microscopy Sciences) for 10 minutes, washed 3 times with PBS and permeabilized in 0.1% TritonX-100 for 10 minutes at room temperature. After washing twice with PBS, cells were placed in blocking buffer (1:1 Seablock (Abcam) and 0.1% TritonX-100 (Bio-Rad) in PBS) for at least 1 hour at room temperature, then labeled with primary antibodies (see below) for 24-48 hours at 4° C. Cells were then washed three times in TBS, then labeled with secondary antibodies (see below) in TBS at room temperature for 2-4 hours and washed a final two times with TBS. Stained cells were mounted on #1.5 coverslips in Prolong Diamond Antifade Mountant (Thermo Fisher) for imaging. Alternatively, cells were imaged directly in chambers with TBS. Imaging was carried out on a Zeiss 880 Airyscan confocal microscope operating on an Axiovert Z1 inverted microscope equipped with a Plan-Apochromat 63× oil 1.4 NA objective. Image analysis was performed using ZEN Black software for Airyscan processing, which involves signal integration from the 32 separate sub-resolution detectors in the Airyscan detector and subsequent deconvolution of this integrated signal.

[5] = test system: primary cardiomyocytes isolated from ZSF1-Lean or ZSF1 Obese rats; assay: Cardiomyocyte stretch longitudinal stiffness; assay type: cell-based, rat; conditions: 10% strain
Experimental: FIG. 18: Reduced longitudinal stiffness upon VASH inhibition in primary cardiomyocytes isolated from ZSF1-Lean or ZSF1 Obese rats. A) Diastolic Stiffness (elastic modulus at the initial time of peak strain) upon a 10%, 200 ms strain along the long-axis of an isolated cardiomyocyte; B) Stead state stiffness upon strain and hold, and C) stress relaxation (indicator of viscoelasticity) in ZSF1-Lean and Obese cardiomyocytes.
Either freshly isolated or cultured myocytes were diluted to a sparse density (~10×) into a large (22×50 mm) glass bottom petri dish coated with BSA to prevent myocyte adhesion with Normal Tyrodes solution. A small aliquot of Myotak™ was freshly thawed and a 1.5 uL droplet was placed in a dry area of the petri dish and allowed to polymerize (2-3 min). When the droplet had become “tacky” laser etched glass rods (Ion Optix LLC) were lowered into the solution several times to create a thin coating of Myotak which was allowed to dry for 90 seconds before the probes were submersed into the cell-containing bath. […] The Myostretcher apparatus (Ion Optix LLC) was used to stretch myocytes by roughly 10% over either a 200 ms (diastolic) or 5 s (slow) interval while force and sarcomere length were recorded using the Ion Wizard software and MyoCam imaging system (live FFT). […]

[6] = test system: Swiss mice; assay: Organ histology (Hematoxylin and Eosin) after systemic treatment; assay type: in vivo, mouse
Source text: To further ascertain the safety profile of the compounds in an animal model, we administered SVC-02 to Swiss mice and analysed by immunohistological description different organ structures including kidney, heart and lung.

Sequence of recombinant human VASH2 (Q86V25 whole entry): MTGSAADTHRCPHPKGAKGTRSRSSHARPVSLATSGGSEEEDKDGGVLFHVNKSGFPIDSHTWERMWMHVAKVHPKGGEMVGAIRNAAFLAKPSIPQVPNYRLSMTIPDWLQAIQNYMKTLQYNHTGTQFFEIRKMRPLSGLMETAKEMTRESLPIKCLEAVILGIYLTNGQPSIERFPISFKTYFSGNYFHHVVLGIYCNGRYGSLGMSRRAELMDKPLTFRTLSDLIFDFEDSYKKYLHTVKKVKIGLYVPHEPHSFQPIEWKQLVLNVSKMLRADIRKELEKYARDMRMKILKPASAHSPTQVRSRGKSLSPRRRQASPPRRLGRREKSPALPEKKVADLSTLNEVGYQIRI

## O=C(O)CCC[C@H](NC(=O)[C@H]1O[C@@H]1C(=O)C[C@@H](Cc1ccc(OCc2ccccc2)cc1)C(=O)O)C(=O)NCCc1ccccc1 [SVC_01]
[1]
  inhibition of detyrosinating activity of recombinant human VASH2: efficiently inhibited; also recorded: efficient in inhibiting
[2]
  inhibition of Carboxypeptidase A: No cross reactions observed
[3]
  mitochondrial activity: does not alter mitochondrial activity
[4]
  detyrosinated tubulin in ZSF1 cardiomyocytes: virtual elimination of detyrosinated microtubule; also recorded: significant reduction of tubulin detyrosination
  tyrosinated microtubule network: maintained tyrosinated microtubule network
[5]
  viscoelastic longitudinal stiffness: viscoelastic longitudinal stiffness is reduced

## CCOC(=O)[C@H](Cc1ccc(OCC)cc1)NC(=O)[C@H]1O[C@@H]1C(=O)N[C@@H](Cc1ccc(OCC)cc1)C(=O)OCC [SVC_02]
[6]
  organ structure (kidney, heart and lung) histology: normal appearance of different organs; also recorded: did not alter organ structure
